Experimental data: US5817641A, “Treatment of enterotoxigenic diarrhea with 2-substituted adenosine derivatives” (priority 1997, dated 1998)

What was measured:
[1] = molecular target: T1, guanylyl cyclase C (GC-C) (Rattus norvegicus, UniProt P23897); assay: biochemical; type: biochemical; conditions: for maximum inhibition of guanylyl cyclase: with or without ST; for inhibition at 1000 µM: read-out: decrease of Vmax of guanylyl cyclase; for guanylyl cyclase activation by peptide: 10 μM peptide, presence or absence of 1 mM ATP
T1 construct: The mucosal layer was scraped from the intestine and homogenized; from tissue; host or cells: small intestinal mucosa of Sprague-Dawley rats (100,000×g washed membrane pellet)
Experimental: (§1) Membranes were prepared from rat intestinal mucosa cells as described previously (Gazzano et al., (1991) Infect. Immun., 59, 1552-1557, which is incorporated herein by reference). Briefly, Sprague-Dawley rats were sacrificed, small intestine removed and rinsed in ice-cold 0.9% NaCl. All procedures were conducted at 4° C. The mucosal layer was scraped from the intestine and homogenized in 50 mM Tris-HCl (pH 7.6) containing 1 mM dithiothreitol, 1 mM EDTA and 1 mM phenylmethylsulfonyl fluoride, (TED) supplemented with 0.25M sucrose (TEDS). Homogenates were centrifuged at 100,000×g for 60 minutes and the resulting pellet was sequentially washed in (i) TED supplemented with 0.5M KCl, (ii) TED:TEDS (1:1) and (iii) TED. The final pellet was homogenized in TED at a protein concentration of 5-10 mg/mL and aliquots were stored at -70° C.
Guanylyl cyclase activity was assayed as described previously (Waldman et al., (1984) J. Infect. Dis., 149, 83-89, which is incorporated herein by reference). Membranes were incubated at 37° C. in a final volume of 100 μl in the presence of 50 mM Tris-HCl (pH 7.6) containing 10 mM theophylline, 7.5 mM creatine phosphate/[…] creatine phosphokinase (160 U/mg of protein), GTP, manganese or magnesium cofactor (2 mM in excess of nucleotide) and ST and/or adenine nucleotide where indicated. Reactions were initiated by addition of membrane, incubated 5 minutes and terminated by adding 400 μl of 50 mM sodium acetate (pH 4.0) and boiling for 5 minutes. Following acetylation, samples were diluted with 50 mM NaAc containing 20 mM CaCl2. Generated cGMP was quantified by radioimmunoassay as described previously (Waldman et al., (1984) J. Infect. Dis., 149, 83-89). Radioimmunoassays were performed in triplicate, enzyme reactions were performed in duplicate, and results are representative of at least 3 experiments. Enzyme activity was linear with respect to protein concentration and time for all experiments.
Protein concentration was measured by the method of Bradford (Bio-Rad) using bovine serum albumin as standard (Bradford, M. M., (1976) Anal. Biochem., 72, 248-254). All assays were performed in duplicate and data are representative of at least 3 experiments. Values reported for the S0.5 and Vmax are equivalent to the concentration of substrate yielding half-maximum guanylyl cyclase activity and the maximum velocity of the enzyme activity, respectively. All nucleotides were obtained from Sigma, except 2-chloroadenosine 5'-triphosphate (2ClATP) which were from Research Biochemicals Incorporated (Natick, Mass.).

ST receptor (GC-C) = assay: ST receptor binding assay ([125I]-ST) in rat intestinal membranes; conditions: 1 mM nucleotide, presence or absence of GTP and magnesium
Experimental: as §1, with “Homogenates were centrifuged at 100,000×g for 60 minutes and the resulting pellet was sequentially washed in (i) TED supplemented with 0.5M KCl, (ii) TED:TEDS (1:1) and (iii) TED. The final pellet was homogenized in TED at a protein concentration of 5-10 mg/mL and aliquots were stored at -70° C.” left out
ST binding was quantified as described previously (Hugues et al., (1991) Biochemistry, 30, 10738-10745, which is incorporated herein by reference). […] Parallel incubations contained excess (10^-6 M) unlabeled ST to quantify non-specific binding. Reaction mixtures were incubated for 40 minutes at 37° C. and bound [^125 I]-ST was separated from free ligand by vacuum filtration through Whatman (GF/B glass fiber filters pretreated with 0.3% polyethyleneimine. Filters were washed with 10 ml of 20 mM phosphate-buffered saline (pH 7.2) containing 1 mM EDTA. Radioactivity which remained on the filter was quantified in a Packard γ-counter. Specific binding was determined by subtracting non-specific binding from the total [^125 I]-ST bound in the absence of unlabeled ligand. Non-specific binding was routinely less than 20% of total binding.

[2] = test system: GC-C in membranes from T84 and Caco 2 cells; assay: Guanylyl cyclase activity in membranes prepared from T84 and Caco 2 cells; type: biochemical
From the text: Guanylyl cyclase C undergoes post-translations processing yielding multiple ST-binding proteins detected in crosslinking studies utilizing ^125 I-ST or by Western blot analysis (Vaandrager et al., (1993) J. Biol. Chem., 268, 2174-2179; Vaandrager et al., (1993) J. Biol. Chem., 268, 19598-19603; Ivens et al., (1990) Infect. Immun., 58, 1817-1820; de Sauvage et al., (1993) J. Biol. Chem., 267, 6479-6482; Cohen et al., (1993) J. Cell. Physiol., 156, 138-144). Post-translational processing of GC-C appears to reflect heterogenicity of glycosylation and proteolysis. Processing has been observed in membranes examined from intestinal mucosal cells, intestinal cells grown in vitro, and mammalian cells expressing cloned rat or human GC-C. Thus, the shift in apparent cooperativity with associated changes in Hill coefficients induced by 2-substituted adenine nucleotides could reflect differences in their effects on different populations of GC-C in intestinal membranes. Guanylyl cyclase C is the predominant, […], member of the particulate guanylyl cyclase family expressed by T84 and Caco 2 cells in vitro (Vaandrager et al., (1992) Gastroenterology, 102, 1161-1169). […]

P2y purinergic receptors = conditions: cited from earlier work
[3] = magnesium cofactor, basal and ST (1 μM)-activated
[4] = manganese cofactor (1.6 without nucleotide)

T1 sequence (P23897 23-1072): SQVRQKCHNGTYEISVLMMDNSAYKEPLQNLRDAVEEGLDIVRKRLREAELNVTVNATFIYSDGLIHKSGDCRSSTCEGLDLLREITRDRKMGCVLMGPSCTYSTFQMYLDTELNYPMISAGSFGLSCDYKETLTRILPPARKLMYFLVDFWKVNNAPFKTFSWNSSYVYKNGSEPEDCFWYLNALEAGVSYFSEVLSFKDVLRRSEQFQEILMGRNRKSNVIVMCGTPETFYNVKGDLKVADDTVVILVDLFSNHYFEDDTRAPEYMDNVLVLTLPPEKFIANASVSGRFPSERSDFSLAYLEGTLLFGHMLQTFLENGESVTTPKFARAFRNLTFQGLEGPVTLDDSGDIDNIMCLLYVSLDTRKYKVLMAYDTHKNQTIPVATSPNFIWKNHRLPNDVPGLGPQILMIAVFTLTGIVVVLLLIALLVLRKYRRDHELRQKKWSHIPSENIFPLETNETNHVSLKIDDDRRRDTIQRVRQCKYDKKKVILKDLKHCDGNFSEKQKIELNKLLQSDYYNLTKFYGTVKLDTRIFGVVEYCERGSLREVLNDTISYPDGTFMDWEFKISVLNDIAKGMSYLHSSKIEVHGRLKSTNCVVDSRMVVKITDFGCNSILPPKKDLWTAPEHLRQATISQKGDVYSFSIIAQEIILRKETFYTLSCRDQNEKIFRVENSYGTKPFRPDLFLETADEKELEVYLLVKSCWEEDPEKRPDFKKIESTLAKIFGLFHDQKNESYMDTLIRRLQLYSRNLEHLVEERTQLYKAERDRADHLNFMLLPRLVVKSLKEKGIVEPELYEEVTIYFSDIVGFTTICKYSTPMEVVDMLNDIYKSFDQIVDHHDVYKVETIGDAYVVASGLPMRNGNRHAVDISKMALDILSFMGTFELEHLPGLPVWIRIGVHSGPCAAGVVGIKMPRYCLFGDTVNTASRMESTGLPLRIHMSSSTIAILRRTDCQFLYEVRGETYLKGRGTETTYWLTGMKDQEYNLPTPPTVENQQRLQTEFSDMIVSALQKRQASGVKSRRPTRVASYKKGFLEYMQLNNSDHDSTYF

Molecule: Nc1nc(Cl)nc2c1ncn2[C@@H]1O[C@H](COP(=O)(O)OP(=O)(O)OP(=O)(O)O)[C@@H](O)[C@H]1O [2ClATP, 2-chloroadenosine 5'-triphosphate]
- Ki ([1]; Ki (concentration yielding half-maximum inhibition)): 300 µM
- guanylyl cyclase activity inhibited ([1]; in the presence of maximally activating concentrations of AMPS): > 95%
- Ki values in the presence or absence of ST ([1]; magnesium cofactor): not significantly different
- effect on guanylyl cyclase activity [1, 3]: inhibited guanylyl cyclase activity
- maximum inhibition of guanylyl cyclase ([1]; magnesium cofactor): > 95%
- effect on guanylyl cyclase activity ([1]; manganese cofactor): inhibited guanylyl cyclase in a concentration-dependent fashion
- guanylyl cyclase activity inhibited ([1]; manganese cofactor): > 95%
- Ki when AMPS is incorporated in enzyme incubations ([1]; with maximally activating AMPS (3 mM)): unchanged
- specific binding of [125I]-ST to intestinal membranes (ST receptor (GC-C)): unchanged

Molecule: Nc1nc(Cl)nc2c1ncn2[C@@H]1O[C@H](CO)[C@@H](O)[C@H]1O [2ClAdo]
- effect on guanylyl cyclase activity ([1]; manganese cofactor): did not significantly inhibit guanylyl cyclase

Molecule: CSc1nc(N)c2ncn([C@@H]3O[C@H](COP(=O)(O)OP(=O)(O)OP(=O)(O)O)[C@@H](O)[C@H]3O)c2n1 [2MeSATP]
- Ki ([1]; Ki for inhibition of guanylyl cyclase, 20 μM GTP): 390 ± 260 µM
- Ki ([1]; Ki for inhibition of guanylyl cyclase, 1000 μM GTP): 280 ± 180 µM
- Ki values in the presence or absence of ST ([1]; magnesium cofactor): not significantly different
- Hill coefficient of guanylyl cyclase in the presence of nucleotide ([1]; magnesium cofactor, 1 mM nucleotide, presence and absence of ST): about 1.0
- effect on guanylyl cyclase activity [1, 3]: inhibited guanylyl cyclase activity
- maximum inhibition of guanylyl cyclase ([1]; magnesium cofactor): > 95%
- effect on Vmax and S0.5 ([1]; magnesium cofactor, nucleotide 1 mM, presence or absence of ST): lowered the Vmax without significantly changing the S0.5
- effect on guanylyl cyclase activity ([1]; manganese cofactor): inhibited guanylyl cyclase in a concentration-dependent fashion
- guanylyl cyclase activity inhibited ([1]; manganese cofactor): > 95%
- Hill coefficient of guanylyl cyclase in the presence of nucleotide [1, 4]: 0.7
- effect on S0.5 ([1]; manganese cofactor, 1 mM nucleotide): only a small effect on the S0.5
- inhibition at 1000 µM [1]: > 90%
- effect on cooperativity of GC-C [2]: shift from positive to negative cooperativity
- inhibition of GC-C [2]: potently inhibited GC-C

Molecule: Nc1ncnc2c1ncn2[C@@H]1O[C@H](COP(=O)(O)OP(O)(O)=S)[C@@H](O)[C@H]1O [ADPβS, adenosine 5'-O-(2-thiodiphosphate), reference compound]
- ligand potency for P2y receptors (P2y purinergic receptors): potent ligand for P2y receptors

Molecule: Nc1ncnc2c1ncn2[C@@H]1O[C@H](COP(=O)(O)CP(=O)(O)OP(=O)(O)O)[C@@H](O)[C@H]1O [AMPCPP, α,β-methylene adenosine 5'-triphosphate, reference compound]
- ligand potency for P2y receptors (P2y purinergic receptors): poor ligand for P2y receptors

Molecule: Nc1ncnc2c1ncn2[C@@H]1O[C@H](COP(O)(O)=S)[C@@H](O)[C@H]1O [AMPS, adenosine 5'-O-thiomonophosphate, reference compound]
- effect on guanylyl cyclase activity [1, 3]: potentiated guanylyl cyclase activation by ST in a concentration-dependent fashion
- effect on guanylyl cyclase activity ([1]; manganese cofactor): did not significantly inhibit guanylyl cyclase
- Ka to potentiate ST-activation of guanylyl cyclase when 2ClATP is incorporated ([1]; with 2ClATP at 0.3 mM): unchanged

Molecule: Nc1ncnc2c1ncn2[C@@H]1O[C@H](COP(=O)(O)OP(=O)(O)OP(=O)(O)O)[C@@H](O)[C@H]1O [ATP, reference compound]
- effect on guanylyl cyclase activity [1, 3]: activated guanylyl cyclase in a concentration-dependent manner but with a lower efficacy than ATPγS
- effect on guanylyl cyclase activity ([1]; manganese cofactor): inhibited guanylyl cyclase in a concentration-dependent fashion
- Hill coefficient of guanylyl cyclase in the presence of nucleotide [1, 4]: less than 1.0
- S0.5 of guanylyl cyclase in the presence of nucleotide ([1]; manganese cofactor, 1 mM nucleotide (0.08 mM without)): 0.25 mM
- concentration at which the nucleotide inhibits guanylyl cyclase activity (biphasic dose-response) ([1]; rat intestinal membranes): above 1 mM
- inhibition at 1000 µM [1]: 80%

Molecule: Nc1ncnc2c1ncn2[C@@H]1O[C@H](CO[P@](=O)(O)O[P@](=O)(O)O[P@@](=O)(O)S)[C@@H](O)[C@H]1O [ATPγS, adenosine 5'-O-(3-thiotriphosphate), reference compound]
- maximal activation of guanylyl cyclase ([1]; magnesium cofactor, in the presence of ST (1 μM)): 2- to 3 fold
- effect on guanylyl cyclase activity ([1]; manganese cofactor): inhibited guanylyl cyclase in a concentration-dependent fashion

Molecule: ANP: atrial natriuretic peptides, ligand of GC-A [reference compound]
- guanylyl cyclase activation by peptide [1]: did not exhibit guanylyl cyclase activation

Molecule: CNP: C-type natriuretic peptide, ligand of GC-B [reference compound]
- guanylyl cyclase activation by peptide [1]: did not exhibit guanylyl cyclase activation
